Laboratory results reported in paper PMC3960879 (Biology, 2013).
Like-named read-outs stand apart in the source and are kept apart here.

Experiments:
[1] = biological target: T1, F17aG receptor-binding domain (Escherichia coli, UniProt Q99003); experiment: biochemical; settings: SPR steady state, 25 °C, pH 7.4
T1 construct: variants of the lectin domains with oligolysine (4Lys) tails have been constructed; made in house; host or cells: E. coli (periplasm)
Experimental: (§1) The affinity profiles were determined by surface plasmon resonance (SPR) measurements using a BiaCore 3000 instrument (GE Healthcare). […] The proteins were covalently immobilized on CM5 sensor chips (Biacore AB) to an average density of 2000 RU (resonance units in pg/mm^2). On each chip, one flow cell was coated with a camel single domain antibody for use as a reference cell. The other three flow cells (Fc2, Fc3 and Fc4) were coated with three different F17G variants. Carbohydrate concentrations ranging from 10 µM to 10 mM in running buffer (20 mM Hepes, pH 7.4; 150 mM NaCl; 3 mM EDTA and 0.005% surfactant Tween 20) were incubated for one minute on all flow cells simultaneously, at 25 °C and at a flow rate of 30 µL/min. Complete dissociation of the carbohydrates in running buffer was verified before starting a new binding cycle. All binding cycles were performed in duplicate, including a zero concentration cycle (injection of pure running buffer). All analysis was done using the BIAeval software. In each case the equilibrium resonance signal from the reference cell was subtracted from that of the various F17G flow cells (2-1, 3-1, 4-1). A Langmuir binding isotherm with a 1:1 stoichiometry was fitted to the data, from which the equilibrium dissociation constants, Kd, were obtained.

[2] = biological target: F17fG receptor-binding domain (Escherichia coli, UniProt Q9RH91); experiment: Surface plasmon resonance steady-state affinity, immobilized F17fG
Experimental: as §1

[3] = biological target: F17eG receptor-binding domain; experiment: Surface plasmon resonance steady-state affinity, immobilized F17eG; parameters: species or system Escherichia coli; settings: SPR steady state, 25 °C, pH 7.4
Experimental: as §1

F17fG lectin domain = experiment: CFG mammalian printed glycan array version 2 (experiment 400), F17fG; type: binding, Escherichia coli; settings: CFG glycan array version 2; F17G at 200 µg/mL; SEM in parentheses
Excerpt: (§2) The slide was dried under a stream of nitrogen.

F17bG lectin domain = F17bG lectin domain (Escherichia coli, UniProt Q47200); settings: CFG glycan array version 2; F17G at 200 µg/mL; SEM in parentheses
Experimental: (§3) A microarray presenting 264 different glycans (mammalian printed array version 2) was used to evaluate if the F17G variant lectin domains differ in the range of glycan receptors that they recognize, thereby establishing tropism. The microarray was set up within the Consortium for Functional Glycomics (CFG) ([20], and supplemental data). Binding of F17G (200 µg/mL) was detected using anti-F17G polyclonal rabbit IgG (10 µg/mL), followed by fluorescently labelled goat anti-rabbit polyclonal antibodies (IgG-488, 5 µg/mL).
(§4) A microarray presenting 264 different glycans (mammalian printed array version 2 from the CFG, experiment 400) was used to evaluate whether the F17G variant lectin domains differ in the range of glycan receptors that they can recognize, thereby establishing strain-dependent tropism. […] The glycan array screening has been repeated for F17aG only on printed array version 4.1 (experiment 2053) (Figure 1).
(§5) Printed array version 2 at the Consortium for Functional Glycomics was used for glycan array screening of the variant F17G receptor binding domains. Slides were printed, with six replicates for each glycan, using glycan spotting concentrations of 100 μM, at the Consortium Carbohydrate Synthesis/Protein Expression Core D located at the Scripps Research Institute onto Schott Nexterion H slides (Schott Cat. No. 1070936B). Slide conditioning: preprinted slides were soaked in deionized water for 5 minutes at room temperature and dried under a stream of nitrogen. TSM buffer (20 mM Tris-HCl, pH 7.4, or MOPS 20 mM; 150 mM NaCl; 2 mM CaCl2, 2 mM MgCl2) was used as wash buffer (TSM buffer + 0.05% Tween 20) or binding buffer (TSM buffer + 0.05% Tween 20 + 1% BSA). (1) F17G was diluted to 200 μg/mL (Figure 1) in TSM binding buffer. (2) 50 μL of F17G was applied to the printed surface and coverslipped. (3) The slide was incubated, protected from light, in a humidified chamber for 1 hour at RT. (4) The slide was washed once in TSM wash buffer. 50 μL of the anti-F17G (10 μg/mL) polyclonal rabbit IgG were applied, coverslipped and incubated for 1 h at RT. (5) The slide was washed once in TSM wash buffer. Fifty μL of fluorescently labelled secondary goat anti-rabbit polyclonal antibodies (IgG-488, 5 µg/mL) were applied, coverslipped and incubated for 1 h at RT. (6) Slide was removed, followed by the coverslip, and washed for 10 s each in TSM wash buffer, TSM wash buffer lacking Tween 20, and deionized water. The slide was dried under a stream of nitrogen. (7) The binding image was read in a Perkin Elmer Microscanarray XL4000 scanner and tiff file of image stored. (8) Image analysis was performed using Imagene (V.6) image analysis software. (9) Raw data results files were generated in Excel format and uploaded to the Consortium database as .dat files. (10) Imagene data was uploaded to the database as .txt files.

F17aG lectin domain = F17aG lectin domain (Escherichia coli, UniProt Q99003); settings: CFG glycan array version 2; F17G at 200 µg/mL; SEM in parentheses
Experimental: as §3, §4, §5

F17dG lectin domain = F17dG lectin domain (Escherichia coli, UniProt Q47199); settings: CFG glycan array version 2; F17G at 200 µg/mL; SEM in parentheses
Experimental: as §3, §4, §5

F17eG lectin domain = experiment: CFG mammalian printed glycan array version 2 (experiment 400), F17eG; type: binding, Escherichia coli; settings: CFG glycan array version 2; F17G at 200 µg/mL; SEM in parentheses
Excerpt: as §2

[4] = Affinity range (Kd class), F17aG
[5] = good fit for at least three related experiments, read-out: dissociation constant Kd, F17eG
[6] = read-out: Affinity range (Kd class), F17eG
[7] = good fit for at least three related experiments, read-out: dissociation constant Kd, F17aG
[8] = read-out: Affinity range (Kd class), F17aG
[9] = SPR steady state, 25 °C, pH 7.4, read-out: Affinity range (Kd class), F17fG

Chain of F17fG receptor-binding domain (Q9RH91 23-198): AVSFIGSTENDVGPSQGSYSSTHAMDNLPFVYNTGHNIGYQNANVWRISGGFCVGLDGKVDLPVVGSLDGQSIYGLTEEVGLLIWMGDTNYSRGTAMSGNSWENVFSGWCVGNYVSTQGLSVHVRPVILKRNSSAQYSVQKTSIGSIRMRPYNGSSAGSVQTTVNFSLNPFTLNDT
Chain of F17bG lectin domain (Q47200 23-199): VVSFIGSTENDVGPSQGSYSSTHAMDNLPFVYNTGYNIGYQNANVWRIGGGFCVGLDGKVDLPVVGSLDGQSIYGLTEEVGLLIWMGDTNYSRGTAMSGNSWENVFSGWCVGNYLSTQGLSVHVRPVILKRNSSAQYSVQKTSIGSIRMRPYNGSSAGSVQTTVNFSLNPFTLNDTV
T1 sequence (Q99003 23-199): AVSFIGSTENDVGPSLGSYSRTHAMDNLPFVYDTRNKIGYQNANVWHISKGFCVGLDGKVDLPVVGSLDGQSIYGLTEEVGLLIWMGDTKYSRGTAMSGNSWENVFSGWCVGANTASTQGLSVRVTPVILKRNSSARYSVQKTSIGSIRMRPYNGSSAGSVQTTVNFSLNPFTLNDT
Chain of F17aG lectin domain (Q99003 23-199): as above
Chain of F17dG lectin domain (Q47199 23-199): as the sequence (Q99003 23-199) above, with L16P, D33N, R35G, K37N, H47R, K90N counted along it

| Compound | Relative Fluorescence Units (RFU), averaged over six replicates, F17fG (F17fG lectin domain) | Relative Fluorescence Units (RFU), averaged over six replicates, F17bG (F17bG lectin domain) | Relative Fluorescence Units (RFU), averaged over six replicates, F17aG (F17aG lectin domain) | Relative Fluorescence Units (RFU), averaged over six replicates, F17dG (F17dG lectin domain) | Relative Fluorescence Units (RFU), averaged over six replicates, F17eG (F17eG lectin domain) | other results |
| --- | --- | --- | --- | --- | --- | --- |
| CC(=O)N[C@H]1[C@H]([C@H](O)[C@H](O)CO)OC(O)(C(=O)O)C[C@@H]1O (stereo partly drawn) [N-acetylneuraminic acid] | – | – | – | – | – | Kd [1, 4]: > 100 mM; Kd [2]: > 100 mM |
| CO[C@@H]1O[C@H](CO)[C@H](O[C@@H]2O[C@H](CO)[C@@H](O)[C@H](O)[C@H]2NC(C)=O)[C@H](O)[C@H]1O [GlcNAcβ1,4Gal, GlcNAc(β1-4)Galβ1OMe] | – | – | – | – | – | Kd [3, 5]: 2.7 mM; Kd [3, 6]: 1 to 10 mM; Kd [1, 7]: 3.3 mM; Kd [1, 8]: 1 to 10 mM |
| Neu5Acα2,3Galβ1,4GlcNAcβ1,2 Man | – | – | – | – | – | Kd [3, 6]: 10 to 100 mM |
| CO[C@@H]1O[C@H](CO)[C@H](O)[C@H](O)[C@H]1O[C@@H]1O[C@H](CO)[C@@H](O)[C@H](O)[C@H]1NC(C)=O [GlcNAcβ1,2Gal, GlcNAc(β1-2)Galβ1OMe] | – | – | – | – | – | Kd [3, 5]: 2 mM; Kd [3, 6]: 1 to 10 mM; Kd [1, 7]: 4.2 mM; Kd [1, 8]: 1 to 10 mM |
| CC(=O)N[C@@H]1[C@@H](O)[C@H](O)[C@@H](CO)O[C@H]1O [GlcNAc, N-acetylglucosamine] | – | – | – | – | – | Kd [1, 4]: 1 to 10 mM; Kd ([1]; dissociation constant Kd, F17aG, good fit for at least three related experiments): 1.2 mM; Kd [2]: 1 to 10 mM |
| CO[C@@H]1O[C@H](CO[C@@H]2O[C@H](CO)[C@@H](O)[C@H](O)[C@H]2NC(C)=O)[C@H](O)[C@H](O)[C@H]1O [GlcNAcβ1,6Gal, GlcNAc(β1-6)Galβ1OMe] | – | – | – | – | – | Kd [3, 5]: 3.8 mM; Kd [3, 6]: 1 to 10 mM; Kd [1, 7]: 2.8 mM; Kd [1, 8]: 1 to 10 mM |
| CC(=O)N[C@H]1[C@H](OC[C@H]2O[C@H](OCCCN)[C@H](NC(C)=O)[C@@H](O[C@@H]3O[C@H](CO)[C@H](O)[C@H](O)[C@H]3O)[C@H]2O)O[C@H](CO)[C@@H](O)[C@@H]1O [Galβ1,3(GlcNAcβ1,6)GalNAcα-Sp8] | 3,195 (811) RFU | 6,215 (1,046) RFU | 10,256 (1,410) RFU | 3,850 (364) RFU | 50,893 (5,540) RFU | – |
| CC(=O)N[C@H]1[C@H](O[C@H]2[C@@H](O)[C@@H](CO)O[C@H](OCCCN)[C@@H]2NC(C)=O)O[C@H](CO)[C@@H](O)[C@@H]1O [GlcNAcβ1,3GalNAcα-Sp8] | 10,999 (2,929) RFU | 15,182 (2,925) RFU | 25,971 (3,174) RFU | 6,635 (2,735) RFU | 33,330 (7,321) RFU | – |
| GlcNAcβ1-3Galβ1,4GlcNAcβ-Sp8 | 28,888 (6,925) RFU | 15,483 (1,729) RFU | 51,880 (5,023) RFU | 17,991 (4,401) RFU | 49,223 (5,377) RFU | – |
| GlcNAcβ1,6GalNAcα-Sp8 | 26,522 (11,365) RFU | 6,683 (947) RFU | 11,120 (1,871) RFU | 2,432 (406) RFU | 43,848 (4,140) RFU | – |
| Galβ1,4GlcNAcβ-Sp0 | 1,279 (106) RFU | 1,974 (289) RFU | 1,703 (1,070) RFU | 249 (94) RFU | 19,659 (4,594) RFU | – |
| GlcNAcβ1,3Galβ1,3GalNAcα-Sp8 | 31,661 (2,807) RFU | 10,655 (880) RFU | 7,713 (866) RFU | 3,999 (1,481) RFU | 47,984 (3,178) RFU | – |
| GlcNAcβ1,2Galβ1,3GalNAcα-Sp8 | 563 (125) RFU | 1,016 (239) RFU | 5,082 (4,924) RFU | 75 (35) RFU | 305 (148) RFU | – |
| GM1 ganglioside | – | – | – | – | – | Kd [2, 9]: > 100 mM |
| CC(=O)N[C@H]1[C@H](OCCCN)O[C@H](CO)[C@@H](O)[C@@H]1O [GlcNAcβ-Sp8] | 10,738 (2,670) RFU | 12,289 (1,168) RFU | 22,909 (3,087) RFU | 2,514 (365) RFU | 31,863 (4,615) RFU | – |
| Neu5Acα2,3Galβ1,3(Neu5Acα2,6)GlcNAcβ1,3Gal β1,4Glc | – | – | – | – | – | Kd [2, 9]: > 100 mM |
| GlcNAcβ1,6Galβ1,4GlcNAcβ-Sp8 | 2,269 (561) RFU | 5,372 (746) RFU | 9,029 (1,096) RFU | 5,119 (1,633) RFU | 40,973 (6,555) RFU | – |
| CC(=O)N[C@H]1[C@H](OCCCN)O[C@H](CO)[C@@H](O[C@@H]2O[C@H](CO)[C@@H](O[C@@H]3O[C@H](CO)[C@@H](O)[C@H](O)[C@H]3NC(C)=O)[C@H](O)[C@H]2NC(C)=O)[C@@H]1O [GlcNAcβ1,4GlcNAcβ1,4GlcNAcβ-Sp8] | 2,418 (613) RFU | 2,860 (706) RFU | 848 (88) RFU | 1,690 (251) RFU | 5,689 (1,085) RFU | – |
| CC(=O)N[C@H]1[C@H](OCCN)O[C@H](CO)[C@@H](O)[C@@H]1O [GlcNAcβ-Sp0] | 5,354 (1,572) RFU | 14,972 (2,705) RFU | 15,621 (2,697) RFU | 3,377 (643) RFU | 34,825 (6,475) RFU | – |
